Molecular target: T1, DNA-PK phosphorylation at Serine 2056 (Homo sapiens, UniProt P78527)
T1 construct: host or cells: FaDu
Test: Cellular Assay for Inhibition of DNA-PK Phosphorylation at Serine 2056 (FaDu cells, neocarzinostatin, sandwich ELISA)
Format: cell-based
Settings: Table 3
Method: FaDu cells were purchased from ATCC and maintained in MEM alpha medium (Life Technologies, cat. no. 12561) supplemented with 10% fetal bovine serum, and 1% GlutaMAX at 37° C. supplemented with 5% CO2. 50,000 cells were seeded to each well of a 96-well cell culture plate in 50 μL of culture medium and incubated for 16-24 hours. Three-fold serially diluted compounds were prepared in DMSO. Culture media was used to prepare compound treatments to 0.3% DMSO (dimethyl sulphoxide) content. Compound treatments were added to the cells for 1 hour prior incubation, followed by the addition of neocarzinostatin in fresh culture medium to 1 μg/mL final concentration for an additional 2 hours incubation to induce DNA DSBs (double-strand breaks). DMSO controls were incubated with fresh culture medium alone for the additional two hours incubation. The cells were then lysed and frozen at −20° C. Cell lysates were thawed on wet ice and protein concentrations quantified by BCA Protein Assay (Thermo # 23225). Lysis buffer was used to normalize lysates by protein content and all lysates were then investigated by sandwich ELISA by means of DNA-PK-specific antibodies (Abcam ab44815: total DNA-PK; ab124918: phosphoserine-2056 DNA-PK) in sandwich ELISA format on the MSD S600MM platform (MesoScale Discovery). % inhibition was calculated for all data points: =1−(DATA_PT−AVERAGE(DMSO controls))/(AVERAGE(NCS controls)−AVERAGE(DMSO controls)). Logarithm of the molar concentration of compound was plotted against percent inhibition to calculate IC50 values, with curve fit settings for data fit to log(inhibitor) vs. normalized response—Variable slope using curve fit software (GraphPad Prism).

Row | SMILES | IC50
1 | N#Cc1cnc(N[C@H]2CC[C@@H](Oc3nc(N4CCOCC4)cc4ncc(O)cc34)CC2)cn1 [LFA1026, 5-[[4-[(3-hydroxy-7-morpholino-1,6-naphthyridin-5-yl)oxy]cyclohexyl]amino]pyrazine-2-carbonitrile] | 100 to 1000 nM
2 | CS(=O)(=O)Nc1cnc2cc(N3CCOCC3)nc(O[C@H]3CC[C@@H](Nc4nccnc4C(F)(F)F)CC3)c2c1 [LFA1029, N-[7-morpholino-5-[4-[[3-(trifluoromethyl)pyrazin-2-yl]amino]cyclohexoxy]-1,6-naphthyridin-3-yl]methanesulfonamide] | < 100 nM
3 | CS(=O)(=O)Nc1cnc2cc(N3CCOCC3)nc(O[C@H]3CC[C@@H](Nc4cncc(C(F)(F)F)n4)CC3)c2c1 [LFA1030, N-[7-morpholino-5-[4-[[6-(trifluoromethyl)pyrazin-2-yl]amino]cyclohexoxy]-1,6-naphthyridin-3-yl]methanesulfonamide] | 100 to 1000 nM
4 | CS(=O)(=O)Nc1cnc2cc(N3CCOCC3)nc(O[C@H]3CC[C@@H](Nc4ccccn4)CC3)c2c1 [LFA1034, N-[7-morpholino-5-[4-(2-pyridylamino)cyclohexoxy]-1,6-naphthyridin-3-yl]methanesulfonamide] | < 100 nM
5 | CS(=O)(=O)Nc1cnc2cc(N3CCOCC3)nc(O[C@H]3CC[C@@H](Nc4ccnc(C(F)(F)F)n4)CC3)c2c1 [LFA1035, N-[7-morpholino-5-[4-[[2-(trifluoromethyl)pyrimidin-4-yl]amino]cyclohexoxy]-1,6-naphthyridin-3-yl]methanesulfonamide] | 100 to 1000 nM
6 | CS(=O)(=O)Nc1cnc2cc(N3CCOCC3)nc(O[C@H]3CC[C@@H](Nc4cnc(C(F)(F)F)cn4)CC3)c2c1 [LFA1037, N-[7-morpholino-5-[4-[[5-(trifluoromethyl)pyrazin-2-yl]amino]cyclohexoxy]-1,6-naphthyridin-3-yl]methanesulfonamide] | < 100 nM
7 | CN(C)c1ccnc(N[C@H]2CC[C@@H](Oc3nc(N4CCOCC4)cc4ncc(NS(C)(=O)=O)cc34)CC2)n1 [LFA1041, N-[5-[4-[[4-(dimethylamino)pyrimidin-2-yl]amino]cyclohexoxy]-7-morpholino-1,6-naphthyridin-3-yl]methanesulfonamide] | 100 to 1000 nM
8 | CS(=O)(=O)Nc1cnc2cc(N3CCOCC3)nc(O[C@H]3CC[C@@H](Nc4nccc(C(F)(F)F)n4)CC3)c2c1 [LFA1044, N-[7-morpholino-5-[4-[[4-(trifluoromethyl)pyrimidin-2-yl]amino]cyclohexoxy]-1,6-naphthyridin-3-yl]methanesulfonamide] | 100 to 1000 nM
9 | CN(C)Cc1cnc(N[C@H]2CC[C@@H](Oc3nc(N4CCOCC4)cc4ncc(NS(C)(=O)=O)cc34)CC2)nc1 [LFA1049, N-[5-[4-[[5-[(dimethylamino)methyl]pyrimidin-2-yl]amino]cyclohexoxy]-7-morpholino-1,6-naphthyridin-3-yl]methanesulfonamide] | < 100 nM
10 | Cc1ccc(N[C@H]2CC[C@@H](Oc3nc(N4CCOCC4)cc4ncc(O)cc34)CC2)nc1 [LFA1051, 5-[4-[(5-methyl-2-pyridyl)amino]cyclohexoxy]-7-morpholino-1,6-naphthyridin-3-ol] | 100 to 1000 nM
11 | Cc1cnc(N[C@H]2CC[C@@H](Oc3nc(N4CCOCC4)cc4ncc(O)cc34)CC2)c(C)c1 [LFA1052, 5-[4-[(3,5-dimethyl-2-pyridyl)amino]cyclohexoxy]-7-morpholino-1,6-naphthyridin-3-ol] | 1000 to 10000 nM
12 | Cc1ccc(N[C@H]2CC[C@@H](Oc3nc(N4CCOCC4)cc4ncc(O)cc34)CC2)cn1 [LFA1053, 5-[4-[(6-methyl-3-pyridyl)amino]cyclohexoxy]-7-morpholino-1,6-naphthyridin-3-ol] | 100 to 1000 nM
13 | Oc1cnc2cc(N3CCOCC3)nc(O[C@H]3CC[C@@H](Nc4ncc(F)cc4F)CC3)c2c1 [LFA1054, 5-[4-[(3,5-difluoro-2-pyridyl)amino]cyclohexoxy]-7-morpholino-1,6-naphthyridin-3-ol] | 100 to 1000 nM
14 | Cc1ccncc1N[C@H]1CC[C@@H](Oc2nc(N3CCOCC3)cc3ncc(O)cc23)CC1 [LFA1055, 5-[4-[(4-methyl-3-pyridyl)amino]cyclohexoxy]-7-morpholino-1,6-naphthyridin-3-ol] | 100 to 1000 nM
15 | Oc1cnc2cc(N3CCOCC3)nc(O[C@H]3CC[C@@H](Nc4ccccn4)CC3)c2c1 [LFA1056, 7-morpholino-5-[4-(2-pyridylamino)cyclohexoxy]-1,6-naphthyridin-3-ol] | < 100 nM
16 | Cc1cc(C)nc(N[C@H]2CC[C@@H](Oc3nc(N4CCOCC4)cc4ncc(O)cc34)CC2)n1 [LFA1057, 5-[4-[(4,6-dimethylpyrimidin-2-yl)amino]cyclohexoxy]-7-morpholino-1,6-naphthyridin-3-ol] | < 100 nM

Results, then the molecule that gave them:

Row | IC50 | SMILES
17 | < 100 nM | COc1cc(C#N)cnc1N[C@H]1CC[C@@H](Oc2nc(N3CCOCC3)cc3ncc(NS(C)(=O)=O)cc23)CC1 [LFA1025, N-[5-[4-[(5-cyano-3-methoxy-2-pyridyl)amino]cyclohexoxy]-7-morpholino-1,6-naphthyridin-3-yl]methanesulfonamide]
18 | < 100 nM | COc1cnc(N[C@H]2CC[C@@H](Oc3nc(N4CCOCC4)cc4ncc(NS(C)(=O)=O)cc34)CC2)cn1 [LFA1028, N-[5-[4-[(5-methoxypyrazin-2-yl)amino]cyclohexoxy]-7-morpholino-1,6-naphthyridin-3-yl]methanesulfonamide]
19 | < 100 nM | CS(=O)(=O)Nc1cnc2cc(N3CCOCC3)nc(O[C@H]3CC[C@@H](Nc4cncc(C#N)n4)CC3)c2c1 [LFA1031, N-[5-[4-[(6-cyanopyrazin-2-yl)amino]cyclohexoxy]-7-morpholino-1,6-naphthyridin-3-yl]methanesulfonamide]
20 | < 100 nM | CS(=O)(=O)Nc1cnc2cc(N3CCOCC3)nc(O[C@H]3CC[C@@H](Nc4nccnc4C#N)CC3)c2c1 [LFA1032, N-[5-[4-[(3-cyanopyrazin-2-yl)amino]cyclohexoxy]-7-morpholino-1,6-naphthyridin-3-yl]methanesulfonamide]
21 | 100 to 1000 nM | CS(=O)(=O)Nc1cnc2cc(N3CCOCC3)nc(O[C@H]3CC[C@@H](Nc4ccnc(C#N)n4)CC3)c2c1 [LFA1033, N-[5-[4-[(2-cyanopyrimidin-4-yl)amino]cyclohexoxy]-7-morpholino-1,6-naphthyridin-3-yl]methanesulfonamide]
22 | < 100 nM | CS(=O)(=O)Nc1cnc2cc(N3CCOCC3)nc(O[C@H]3CC[C@@H](Nc4cnc(C#N)cn4)CC3)c2c1 [LFA1036, N-[5-[4-[(5-cyanopyrazin-2-yl)amino]cyclohexoxy]-7-morpholino-1,6-naphthyridin-3-yl]methanesulfonamide]
23 | 100 to 1000 nM | COc1nc(NC2CCC(Oc3nc(N4CCOCC4)cc4ncc(NS(C)(=O)=O)cc34)CC2)ncc1C#N (stereo not drawn) [LFA1038, N-[5-[4-[(5-cyano-4-methoxy-pyrimidin-2-yl)amino]cyclohexoxy]-7-morpholino-1,6-naphthyridin-3-yl]methanesulfonamide]
24 | < 100 nM | Cc1nc(N[C@H]2CC[C@@H](Oc3nc(N4CCOCC4)cc4ncc(NS(C)(=O)=O)cc34)CC2)ncc1F [LFA1039, N-[5-[4-[(5-fluoro-4-methyl-pyrimidin-2-yl)amino]cyclohexoxy]-7-morpholino-1,6-naphthyridin-3-yl]methanesulfonamide;2,2,2-trifluoroacetic acid]
25 | 100 to 1000 nM | COc1nc(N[C@H]2CC[C@@H](Oc3nc(N4CCOCC4)cc4ncc(NS(C)(=O)=O)cc34)CC2)ncc1C [LFA1040, N-[5-[4-[(4-methoxy-5-methyl-pyrimidin-2-yl)amino]cyclohexoxy]-7-morpholino-1,6-naphthyridin-3-yl]methanesulfonamide]
26 | < 100 nM | CS(=O)(=O)Nc1cnc2cc(N3CCOCC3)nc(O[C@H]3CC[C@@H](Nc4nccc(C#N)n4)CC3)c2c1 [LFA1042, N-[5-[4-[(4-cyanopyrimidin-2-yl)amino]cyclohexoxy]-7-morpholino-1,6-naphthyridin-3-yl]methanesulfonamide;2,2,2-trifluoroacetic acid]
27 | < 100 nM | Cc1cc(C#N)nc(N[C@H]2CC[C@@H](Oc3nc(N4CCOCC4)cc4ncc(NS(C)(=O)=O)cc34)CC2)n1 [LFA1043, N-[5-[4-[(4-cyano-6-methyl-pyrimidin-2-yl)amino]cyclohexoxy]-7-morpholino-1,6-naphthyridin-3-yl]methanesulfonamide;2,2,2-trifluoroacetic acid]
28 | < 100 nM | CS(=O)(=O)Nc1cnc2cc(N3CCOCC3)nc(O[C@H]3CC[C@@H](Nc4cnccn4)CC3)c2c1 [LFA1045, N-[7-morpholino-5-[4-(pyrazin-2-ylamino)cyclohexoxy]-1,6-naphthyridin-3-yl]methanesulfonamide;2,2,2-trifluoroacetic acid]
29 | < 100 nM | Cc1ccnc(N[C@H]2CC[C@@H](Oc3nc(N4CCOCC4)cc4ncc(NS(C)(=O)=O)cc34)CC2)n1 [LFA1047]
30 | < 100 nM | Cc1cnc(N[C@H]2CC[C@@H](Oc3nc(N4CCOCC4)cc4ncc(NS(C)(=O)=O)cc34)CC2)nc1 [LFA1048, N-[5-[4-[(5-methylpyrimidin-2-yl)amino]cyclohexoxy]-7-morpholino-1,6-naphthyridin-3-yl]methanesulfonamide]

Reference: patent publication US20240246960A1 (adMare Therapeutics Society, priority 2021, published 2024)
